Experimental data: the Kinase Knowledgebase extract (Sharma et al. 2016)

biological target: MAPK14 (UniProt Q16539); experiment: Inhibition of MAPK14 Kinase Activity
Sequence (Q16539 whole entry, looked up): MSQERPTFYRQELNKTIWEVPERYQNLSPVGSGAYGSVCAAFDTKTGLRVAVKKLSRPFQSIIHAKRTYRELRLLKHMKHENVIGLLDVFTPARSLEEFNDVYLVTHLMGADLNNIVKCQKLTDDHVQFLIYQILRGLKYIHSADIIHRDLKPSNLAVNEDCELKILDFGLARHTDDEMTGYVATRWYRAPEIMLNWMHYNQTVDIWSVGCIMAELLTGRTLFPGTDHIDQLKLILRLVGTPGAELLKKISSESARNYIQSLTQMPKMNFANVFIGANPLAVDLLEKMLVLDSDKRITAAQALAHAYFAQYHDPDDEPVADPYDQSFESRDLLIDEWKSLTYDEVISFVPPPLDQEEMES

IC50	Structure (SMILES)
< 10 µM	CCN(CC)CCCOc1cc(C(=O)NCC(C)(C)C)ccc1-c1cc(C(=O)NC2CC2)ccc1C
< 10 µM	Cc1c(F)cc(C(=O)NC2CC2)cc1-c1ccc(C(=O)NCC(C)C)cc1O
< 10 µM	Cc1c(F)cc(C(=O)NC2CC2)cc1-c1ccc(C(=O)NCC(C)(C)C)cc1CO
< 10 µM	COCOc1cc(C(=O)N[C@H](C)C(C)C)ccc1-c1cc(C(=O)NC2CC2)cc(F)c1C
< 10 µM	COCOc1cc(C(=O)N[C@H](C)C(C)(C)C)ccc1-c1cc(C(=O)NC2CC2)cc(F)c1C
< 10 µM	Cc1c(F)cc(C(=O)NC2CC2)cc1-c1ccc(C(=O)NCC(C)(C)C)cc1OCCCC(=O)N1CCOCC1
< 10 µM	Cc1ccc(C(=O)NC2CC2)cc1-c1ccc(C(=O)NCC(C)(C)C)cc1NS(C)(=O)=O
< 10 µM	Cc1c(F)cc(C(=O)NC2CC2)cc1-c1ccc(C(=O)N[C@H](C)C(C)C)cc1O
< 10 µM	Cc1c(F)cc(C(=O)NC2CC2)cc1-c1ccc(C(=O)NCC(C)(C)C)cc1OCCCc1nnco1
< 10 µM	Cc1ccc(C(=O)NC2CC2)cc1-c1ccc(C(=O)NCC(C)(C)C)cc1OCCCNCCO
< 10 µM	Cc1c(F)cc(C(=O)NC2CC2)cc1-c1ccc(C(=O)NCC(C)(C)C)cc1OCCCC(=O)O
< 10 µM	Cc1ccc(C(=O)NC2CC2)cc1-c1ccc(C(=O)NCC(C)(C)C)cc1OCCCNC(C)C
< 10 µM	COc1ccc(CNC(=O)c2ccc(-c3cc(C(=O)NC4CC4)cc(F)c3C)c(OC)c2)cc1
< 10 µM	Cc1c(F)cc(C(=O)NC2CC2)cc1-c1ccc(C(=O)N[C@H](C)C(C)(C)C)cc1O
< 10 µM	COCOc1cc(C(=O)NCC2CC2)ccc1-c1cc(C(=O)NC2CC2)cc(F)c1C
< 10 µM	Cc1c(F)cc(C(=O)NC2CC2)cc1-c1ccc(C(=O)NCC(C)(C)C)cc1OCCCC(=O)N(C)C
< 10 µM	CC(=O)Nc1cc(C(=O)NCC(C)(C)C)ccc1-c1cc(C(=O)NC2CC2)ccc1C
< 10 µM	Cc1c(F)cc(C(=O)NC2CC2)cc1-c1ccc(C(=O)NCC(C)(C)C)cc1OCCCC(=O)N1CCCC1
< 10 µM	Cc1ccc(C(=O)NC2CC2)cc1-c1ccc(C(=O)NCC(C)(C)C)cc1OCCCN1CCCC1
< 10 µM	Cc1ccc(C(=O)NC2CC2)cc1-c1ccc(C(=O)NCC(C)(C)C)cc1OCC(O)CO (stereo not drawn)
< 10 µM	COc1ccc(CNC(=O)c2ccc(-c3cc(C(=O)NC4CC4)cc(F)c3C)c(O)c2)cc1
< 10 µM	CNC(=O)CCCOc1cc(C(=O)NCC(C)(C)C)ccc1-c1cc(C(=O)NC2CC2)cc(F)c1C
< 10 µM	CCCOc1cc(C(=O)NCC(C)(C)C)ccc1-c1cc(C(=O)NC2CC2)cc(F)c1C
< 10 µM	COCOc1cc(C(=O)NCC(C)C)ccc1-c1cc(C(=O)NC2CC2)cc(F)c1C

IC50	Structure (SMILES)
< 10 µM	Cc1c(F)cc(C(=O)NC2CC2)cc1-c1ccc(C(=O)NCC(C)(C)C)cc1OCCCCO
< 10 µM	Cc1c(F)cc(C(=O)NC2CC2)cc1-c1ccc(C(=O)NCC(C)(C)C)cc1OCCCN(C)C
< 10 µM	Cc1c(F)cc(C(=O)NC2CC2)cc1-c1ccc(C(=O)NCC(C)(C)C)cc1CNCC(C)(C)C
< 10 µM	CCNC(=O)CCCOc1cc(C(=O)NCC(C)(C)C)ccc1-c1cc(C(=O)NC2CC2)cc(F)c1C
< 10 µM	Cc1ccc(C(=O)NC2CC2)cc1-c1ccc(C(=O)NCC(C)(C)C)cc1N
< 10 µM	COc1cc(C(=O)NCC(C)C)ccc1-c1cc(C(=O)NC2CC2)cc(F)c1C
< 10 µM	COc1cc(C(=O)NCC2CC2)ccc1-c1cc(C(=O)NC2CC2)cc(F)c1C
< 10 µM	COc1cc(C(=O)NCC(C)(C)C)ccc1-c1cc(C(=O)NC2CC2)cc(F)c1C
< 10 µM	Cc1c(F)cc(C(=O)NC2CC2)cc1-c1ccc(C(=O)NCC(C)(C)C)cc1O
< 10 µM	Cc1c(F)cc(C(=O)NC2CC2)cc1-c1ccc(C(=O)NCC2CC2)cc1O
< 10 µM	COc1cc(C(=O)N[C@H](C)C(C)C)ccc1-c1cc(C(=O)NC2CC2)cc(F)c1C
< 10 µM	Cc1c(F)cc(C(=O)NC2CC2)cc1-c1ccc(C(=O)NCC(C)(C)C)cc1OCC(=O)N1CCOCC1
< 10 µM	COc1cc(C(=O)N[C@H](C)C(C)(C)C)ccc1-c1cc(C(=O)NC2CC2)cc(F)c1C
< 10 µM	Cc1ccc(C(=O)NC2CC2)cc1-c1ccc(C(=O)NCC(C)(C)C)cc1OCCCN(C)C(C)C
< 10 µM	Cc1c(F)cc(C(=O)NC2CC2)cc1-c1ccc(C(=O)NCC(C)(C)C)cc1OCCN1CCOCC1
< 10 µM	COCOc1cc(C(=O)NCc2ccc(OC)cc2)ccc1-c1cc(C(=O)NC2CC2)cc(F)c1C
< 10 µM	CCC(=O)Nc1cc(C(=O)NCC(C)(C)C)ccc1-c1cc(C(=O)NC2CC2)ccc1C
< 10 µM	Cc1c(F)cc(C(=O)NC2CC2)cc1-c1ccc(C(=O)NCC2CC2)cc1OCCN(C)C
< 10 µM	COCOc1cc(C(=O)NCC(C)(C)C)ccc1-c1cc(C(=O)NC2CC2)cc(F)c1C
< 10 µM	Cc1c(F)cc(C(=O)NC2CC2)cc1-c1ccc(C(=O)NCC(C)(C)C)cc1OCCCC(N)=O
< 10 µM	Cc1c(F)cc(C(=O)NC2CC2)cc1-c1ccc(C(=O)NCC(C)(C)C)cc1OCCNS(C)(=O)=O
< 10 µM	CCNC(=O)Nc1cc(C(=O)NCC(C)(C)C)ccc1-c1cc(C(=O)NC2CC2)ccc1C
< 10 µM	Cc1ccc(C(=O)NC2CC2)cc1-c1ccc(C(=O)NCC(C)(C)C)cc1OCCCN1CCOCC1
< 10 µM	Cc1ccc(CNC(=O)c2ccc(-c3cc(C(=O)NC4CC4)cc(F)c3C)c(O)c2)cc1
